In this test the target is T1, GABA A receptor α5β3γ2 (Homo sapiens, UniProt P18507+P31644).
T1 construct: expressed in transfected cells; host or cells: HEK293 cells, transiently transfected; membranes prepared
In words: [3H]flumazenil competition binding, human GABA A α5β3γ2. Particulars: competition for [3H]flumazenil (0.5 nM) binding, HEK293 cells expressing human (transiently transfected) α5β3γ2; means of two determinations; read-out: Ki[nM] hα5. In a few lines:
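HEK293 membranes expressing GABA-A receptors (human transiently, rat stably transfected) were used for [3H]flumazenil competition in Krebs-tris buffer, pH 7.5. Incubation ran 1 h at 4 °C to equilibrium, followed by filtration and scintillation counting. Ki values are means of two determinations.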

These results are taken from patent publication US7956074B2, “Aryl-isoxazolo-4-yl-oxadiazole derivatives” (Hoffman-La Roche Inc., priority 2005, dated 2011).

On to `Cc1onc(-c2ccccc2)c1-c1nnc(-c2cc(F)c(N3CCS(=O)(=O)CC3)cc2F)o1` [Example 120, 4-{2,5-Difluoro-4-[5-(5-methyl-3-phenyl-isoxazol-4-yl)-[1,3,4]oxadiazol-2-yl]-phenyl}-thiomorpholine 1,1-dioxide], for which the Ki stood at 13.5 nM.

`Cc1onc(-c2ccccc2)c1-c1nnc(-c2cccs2)o1` [Example 121, 2-(5-Methyl-3-phenyl-isoxazol-4-yl)-5-thiophen-2-yl-[1,3,4]oxadiazole]: the Ki amounted to 115 nM.

Regarding `Cc1onc(-c2ccccc2)c1-c1nnc(-c2ccsc2)o1` [Example 122, 2-(5-Methyl-3-phenyl-isoxazol-4-yl)-5-thiophen-3-yl-[1,3,4]oxadiazole], the inhibition constant Ki turned out to be 139 nM.

For the compound `COc1cc(N2CCOCC2)ccc1-c1nnc(-c2c(-c3ccsc3)noc2C)o1` [Example 123, 4-{3-Methoxy-4-[5-(5-methyl-3-thiophen-3-yl-isoxazol-4-yl)-[1,3,4]oxadiazol-2-yl]-phenyl}-morpholine], the Ki was determined as 14.4 nM.

For `COCCNc1ccc(-c2nnc(-c3c(-c4ccccc4)noc3C)o2)c(OC)c1` [Example 124, (2-Methoxy-ethyl)-{3-methoxy-4-[5-(5-methyl-3-phenyl-isoxazol-4-yl)-[1,3,4]oxadiazol-2-yl]-phenyl}-amine], the Ki was found to be 8.2 nM.

As for `Cc1onc(-c2ccccc2)c1-c1nnc(-c2cccc3[nH]cnc23)o1` [Example 125, 4-[5-(5-Methyl-3-phenyl-isoxazol-4-yl)-[1,3,4]oxadiazol-2-yl]-1H-benzoimidazole], the Ki was determined as 26.8 nM.

Regarding `COc1cc(NCCSC)c(F)cc1-c1nnc(-c2c(-c3ccccc3)noc2C)o1` [Example 126, {2-Fluoro-5-methoxy-4-[5-(5-methyl-3-phenyl-isoxazol-4-yl)-[1,3,4]oxadiazol-2-yl]-phenyl}-(2-methylsulfanyl-ethyl)-amine], the Ki is 4.5 nM.

For the compound `COc1cc(NCCS(C)(=O)=O)c(F)cc1-c1nnc(-c2c(-c3ccccc3)noc2C)o1` [Example 127, {2-Fluoro-5-methoxy-4-[5-(5-methyl-3-phenyl-isoxazol-4-yl)-[1,3,4]oxadiazol-2-yl]-phenyl}-(2-methanesulfonyl-ethyl)-amine], the Ki came to 1.7 nM.

`COc1cc(NCCN2CCCC2=O)c(F)cc1-c1nnc(-c2c(-c3ccccc3)noc2C)o1` [Example 128, 1-(2-{2-Fluoro-5-methoxy-4-[5-(5-methyl-3-phenyl-isoxazol-4-yl)-[1,3,4]oxadiazol-2-yl]-phenylamino}-ethyl)-pyrrolidin-2-one]: the Ki is 4.2 nM.

Consider `COc1cc(NCCO)c(F)cc1-c1nnc(-c2c(-c3ccccc3)noc2C)o1` [Example 129, 2-{2-Fluoro-5-methoxy-4-[5-(5-methyl-3-phenyl-isoxazol-4-yl)-[1,3,4]oxadiazol-2-yl]-phenylamino}-ethanol], for which the Ki stood at 2.5 nM.

Regarding `COc1cc(NCc2ccccn2)c(F)cc1-c1nnc(-c2c(-c3ccccc3)noc2C)o1` [Example 131, {2-Fluoro-5-methoxy-4-[5-(5-methyl-3-phenyl-isoxazol-4-yl)-[1,3,4]oxadiazol-2-yl]-phenyl}-pyridin-2-ylmethyl-amine], the Ki was determined as 21.2 nM.

As for `COc1cc(NCCN2CCCC2)c(F)cc1-c1nnc(-c2c(-c3ccccc3)noc2C)o1` [Example 132, {2-Fluoro-5-methoxy-4-[5-(5-methyl-3-phenyl-isoxazol-4-yl)-[1,3,4]oxadiazol-2-yl]-phenyl}-(2-pyrrolidin-1-yl-ethyl)-amine], the Ki was 8.6 nM.

In the case of `COc1cc(NCCN2CCNC2=O)c(F)cc1-c1nnc(-c2c(-c3ccccc3)noc2C)o1` [Example 133, 1-(2-{2-Fluoro-5-methoxy-4-[5-(5-methyl-3-phenyl-isoxazol-4-yl)-[1,3,4]oxadiazol-2-yl]-phenylamino}-ethyl)-imidazolidin-2-one], the Ki is 12.8 nM.

As to `COc1cc(NC=O)ccc1-c1nnc(-c2c(-c3ccccc3)noc2C)o1` [Example 134, N-{3-Methoxy-4-[5-(5-methyl-3-phenyl-isoxazol-4-yl)-[1,3,4]oxadiazol-2-yl]-phenyl}-formamide], the Ki stood at 5.8 nM.

Regarding `COc1cc(NCCN(C)C)c(F)cc1-c1nnc(-c2c(-c3ccccc3)noc2C)o1` [Example 135, N′-{2-Fluoro-5-methoxy-4-[5-(5-methyl-3-phenyl-isoxazol-4-yl)-[1,3,4]oxadiazol-2-yl]-phenyl}-N,N-dimethyl-ethane-1,2-diamine], the Ki stood at 9.4 nM.

In the case of `Cc1onc(-c2ccccc2)c1-c1nnc(-c2ccc(N3CCOCC3)nc2)o1` [Example 136, 4-{5-[5-(5-Methyl-3-phenyl-isoxazol-4-yl)-[1,3,4]oxadiazol-2-yl]-pyridin-2-yl}-morpholine], the Ki amounted to 15.3 nM.

With `Cc1onc(-c2ccccc2)c1-c1nnc(-c2ccc(NCCO)nc2)o1` [Example 137, 2-{5-[5-(5-Methyl-3-phenyl-isoxazol-4-yl)-[1,3,4]oxadiazol-2-yl]-pyridin-2-ylamino}-ethanol], the Ki stood at 24.5 nM.

`Cc1onc(-c2ccccc2)c1-c1nnc(-c2ccc(N3CCSCC3)nc2)o1` [Example 138, 4-{5-[5-(5-Methyl-3-phenyl-isoxazol-4-yl)-[1,3,4]oxadiazol-2-yl]-pyridin-2-yl}-thiomorpholine]: the Ki came out at 31 nM.

Regarding `Cc1onc(-c2ccccc2)c1-c1nnc(-c2ccc(NC3CCOCC3)nc2)o1` [Example 139, {5-[5-(5-Methyl-3-phenyl-isoxazol-4-yl)-[1,3,4]oxadiazol-2-yl]-pyridin-2-yl}-(tetrahydro-pyran-4-yl)-amine], the Ki came out at 16.4 nM.

With `Cc1onc(-c2ccccc2)c1-c1nnc(-c2ccc(N3CCC(O)CC3)nc2)o1` [Example 140, 5′-[5-(5-Methyl-3-phenyl-isoxazol-4-yl)-[1,3,4]oxadiazol-2-yl]-3,4,5,6-tetrahydro-2H-[1,2′]bipyridinyl-4-ol], the inhibition constant (Ki) was found to be 23.5 nM.

With `Cc1onc(-c2ccccc2)c1-c1nnc(-c2ccc(N3CCS(=O)(=O)CC3)nc2)o1` [Example 141, 4-{5-[5-(5-Methyl-3-phenyl-isoxazol-4-yl)-[1,3,4]oxadiazol-2-yl]-pyridin-2-yl}-thiomorpholine 1,1-dioxide], the Ki came to 17.7 nM.

With `Cc1onc(-c2ccccc2)c1-c1nnc(-c2ccc(N3CCOCC3)cn2)o1` [Example 142, 4-{6-[5-(5-Methyl-3-phenyl-isoxazol-4-yl)-[1,3,4]oxadiazol-2-yl]-pyridin-3-yl}-morpholine], the Ki was found to be 17.2 nM.

With “N-Cyclopropylmethyl-4-[5-(5-methyl-3-phenyl-isoxazol-4-yl)-[1,3,4]oxadiazol-2-yl]-benzamide [Example 79]”, the Ki turned out to be 235 nM.
